What was measured:
[1] = system: HIV-1 latent virus in PBMC cells of patient; assay: Activation of latent HIV in PBMC from patient under anti-retroviral treatment (semi-nested real time PCR of intracellular vRNA); assay type: cell-based; conditions: 72 hours
Procedure: It was tested, in this experiment, the ability of ingenol derivative, of formula I, wherein Z=Z2, mentioned as B, of activating latent cells from patients who were already under anti-retroviral treatment for more than 1 year with undetectable viral load. A patient (identified as MLV) was selected, which had already been under treatment with zidovudine+lamivudine (AZT+3TC) and efavirenz for over 14 months, with undetectable viral load and CD4>500 cells/mm^3. 20 mL of blood was collected from the patient in a EDTA (ethylene diamine tetra acetic acid) tube and PBMC cells were isolated, which were placed in RPMI culture medium with 10% fetal bovine serum and 50 IU/mL of IL2 (interleukin 2), and grown in 2 bottles with 5 mL of identical cells (106/mL) with different selective compositions. 10 μM efavirenz (antiviral) was added to the control bottle to block viral replication that would eventually arise from cultured cells. In another test bottle both efavirenz (10 μM) and the B derivative of the invention (1 μM) were included. […]

CD4 HIV-1 receptor = assay: Downregulation of CD4 receptor on human lymphocytes and monocytes/macrophages (flow cytometry); assay type: cell-based; conditions: summary statement for lymphocytes and monocytes/macrophages (human and monkey cells tested)
Description: It is verified in this test that ingenol derivatives of formula 1, when Z=Z2, at concentrations that activate HIV from latency in Jlat cells in example 3, downregulate the expression of CD4 cell receptor on the surface of HIV-human and SIV-pig-tail monkey CD4+T lymphocytes and macrophages. For this experiment PBMC cells from human and monkeys were isolated from peripheral blood with isolation through Ficoll-Hypaque density gradient (mixture of high density hydrophilic neutral polysaccharides that readily dissolves in aqueous solution. “Ficoll” is a trademark of GE Healthcare Bio-Sciences, USA). Thus, PBMC cells from human and monkeys, at concentration of 10^6 cells/mL, were cultured in RPMI medium with 10% fetal bovine serum for 24 hours and adhered cells (monocytes differentiating into macrophages) were separated from the cell supernatant which contained total lymphocytes. Those two distinct populations of cells were exposed to different concentrations of A, B and C derivatives of the invention, and left in culture for 72 hours. After exposure, the cells were stained with specific lymphocyte monoclonals (anti-CD3) and monocytes/macrophages (anti-CD14) simultaneously with an anti-CD4. Thus, the cells were centrifuged at 1000 G for 3 minutes and washed with the same PBS volume (without Ca^2+ and Mg^2+, Cat. No. 9240, Irvine Scientific, USA) containing 2% fetal bovine serum. This wash was repeated 3 times and the cells were suspended in 1×PBS containing a 1/1000 dilution of relevant antibodies and left to incubate for 30 min at 4° C. until being read in flow cytometry. After incubation, 30,000 cells were read in a BD-Excalibur flow cytometer (from Beckton Dickinson and co., USA) and the populations were separated and the CD4 receptor density was estimated at different concentrations of the B derivative, assuming cell density without B derivative as 100%. […]

Row | SMILES | intracellular HIV-1 vRNA ([1]; 10 μM efavirenz alone (control bottle), FIG. 7) | downregulation of the main HIV receptor (CD4) on the surface of infection targeted cells (CD4 HIV-1 receptor) | intracellular HIV-1 vRNA ([1]; 1 μM B derivative plus 10 μm efavirenz, FIG. 8)
1 | O=C1Nc2ccc(Cl)cc2[C@@](C#CC2CC2)(C(F)(F)F)O1 [efavirenz, reference compound] | did not produce intracellular vRNA |  | 
2 | CC1=CC23C(=O)C(C=C(CO)C(O)C2(O)C1OC(=O)/C=C/c1ccccc1)C1C(CC3C)C1(C)C (centres unmarked) [A, Ingenol 3-cinnamate] |  | able to downregulate | 
3 | CCCCCCCCCCCC(=O)OC1C(C)=CC23C(=O)C(C=C(CO)C(O)C12O)C1C(CC3C)C1(C)C (centres unmarked) [C, ingenol 3-dodecanoate] |  | able to downregulate | 
4 | CCCCCC(=O)OC1C(C)=CC23C(=O)C(C=C(CO)C(O)C12O)C1C(CC3C)C1(C)C (centres unmarked) [B, Ingenol 3-caproate] |  | able to downregulate | emergence of intracellular HIV-1 vRNA

From patent US10105339B2, “Ingenol derivatives in the reactivation of latent HIV” (priority 2012, dated 2018)
